Measurements as given in patent US20240148821A1, “PHARMACEUTICAL USE OF CYCLIC PEPTIDE COMPOUND” (CHUGAI SEIYAKU KABUSHIKI KAISHA, priority 2021, published 2024).
Numbered stars: 1 amine (or outer) side, 2 acyl side, 3 side chain; on linkers, the order of the positions; unused ones are H or OH. Bridge positions count the residues as written; N and C are the ends. Square brackets hold non-standard residues; d marks the D form. Peptide text beside a SMILES is read from it. * marks the point of attachment. hPhe(3-Cl-4-CF3) = N[C@@H](CCc1ccc(C(F)(F)F)c(Cl)c1)C(=O)O; hPhe(3-F,4-CF3) = N[C@@H](CCc1ccc(C(F)(F)F)c(F)c1)C(=O)O; hPhe(3-OMe-4-CF3) = COc1cc(CC[C@H](N)C(=O)O)ccc1C(F)(F)F; NMePhe(4-CF3) = CN[C@@H](Cc1ccc(C(F)(F)F)cc1)C(=O)O; Piperazinyl(4-(3-oxetanyl)) = C1OCC1N1CCN(*)CC1; NMePhe(4-Me) = CN[C@@H](Cc1ccc(C)cc1)C(=O)O; NMedβ3hAla = C[C@H](CC(=O)[*:2])N(C)[*:1]; hNle(7,7-F2) = N[C@@H](CCCCC(F)F)C(=O)O; NMeGly(cPent) = CN[C@H](C(=O)O)C1CCCC1; NMeCha = CN[C@@H](CC1CCCCC1)C(=O)O; NMeChg = CN[C@H](C(=O)O)C1CCCCC1; NMeI = CC[C@H](C)[C@H](NC)C(=O)O; NMeD = CN[C@@H](CC(=O)O)C(=O)O; NMeL = CN[C@@H](CC(C)C)C(=O)O; NPrAla = CCCN[C@@H](C)C(=O)O; NMeV = CN[C@H](C(=O)O)C(C)C; d(β3hA) = C[C@@H](N)CC(=O)O; NMeA = CN[C@@H](C)C(=O)O; NMeAib = CNC(C)(C)C(=O)O; Piperidide = C1CCN(*)CC1; Pra = C#CC[C@H](N)C(=O)O; Ac5c = NC1(C(=O)O)CCCC1; Aze = O=C(O)[C@@H]1CCN1; Sar = CNCC(=O)O

System: Human pancreatic cancer cell line AsPC-1 (G12D mutation Kras)
Experiment: AsPC-1 cell growth inhibition (AsPC-1 CGI)
Format: cell-based
Details: read-out: AsPC-1 cell growth inhibition, 50% growth inhibitory concentration (IC50 value); 96 hours, CellTiter-Glo, values classified in ranges
Protocol: Test compounds were serially dilated with dimethyl sulfoxide, and 200 nL was then dispensed to a U-bottom 96-well plate using Labcyte Echo. […] The cell suspension was dispensed to a. plate containing a test compound at 100 μL per well and incubated at 37° C. in a 5% carbon dioxide gas incubator. 96 hours later, 80 μL of CellTiter-Glo (Promega) was added to each well and fluorescence was measured.

SMILES | IC50 [nM]
CC[C@H](C)[C@@H]1NC(=O)[C@H](CC(C)C)N(C)C(=O)C[C@@H](C)NC(=O)[C@H](C2CCCC2)N(C)C(=O)[C@H](C(C)C)NC(=O)[C@@H]2CCCN2C(=O)[C@H](CCc2ccc(C(F)(F)F)c(Cl)c2)NC(=O)CN(C)C(=O)[C@H](Cc2ccc(C)cc2)N(C)C(=O)[C@@H]2CCN2C(=O)[C@H](C)N(C)C1=O [Compound 933] (cyclo([Aze][NMePhe(4-Me)][Sar][hPhe(3-Cl-4-CF3)]PV[NMeGly(cPent)][d(β3hA)][NMeL]I[NMeA])) | > 500
CCCN1C(=O)C[C@@H](C)NC(=O)[C@H](C(C)C)N(C)C(=O)C2(CCCC2)NC(=O)[C@@H]2CCCN2C(=O)[C@H](CCc2ccc(C(F)(F)F)c(Cl)c2)NC(=O)CN(C)C(=O)[C@H](CC2CCCCC2)N(C)C(=O)CN(C)C(=O)CN(C)C(=O)[C@H]([C@@H](C)CC)NC(=O)[C@@H]1C [Compound 114] (cyclo([Ac5c][NMeV][d(β3hA)][NPrAla]I[Sar][Sar][NMeCha][Sar][hPhe(3-Cl-4-CF3)]P)) | > 500
CC[C@H](C)[C@@H]1NC(=O)[C@H](C)N(C)C(=O)C[C@@H](C)N(C)C(=O)[C@H](CC(C)C)NC(=O)C(C)(C)N(C)C(=O)[C@H](CC(C)C)NC(=O)[C@H](CCc2ccc(C(F)(F)F)c(Cl)c2)NC(=O)CN(C)C(=O)[C@H](Cc2ccc(C(F)(F)F)cc2)N(C)C(=O)[C@@H]2CCN2C(=O)CN(C)C1=O [Compound 1392] (cyclo([Aze][NMePhe(4-CF3)][Sar][hPhe(3-Cl-4-CF3)]L[NMeAib]L[NMedβ3hAla][NMeA]I[Sar])) | > 500
CC(C)C[C@H]1C(=O)N[C@@H](CCCCC(F)F)C(=O)N(C)CC(=O)N(C)CC(=O)N(C)[C@@H](CC2CCCCC2)C(=O)N(C)CC(=O)N[C@@H](CCc2ccc(C(F)(F)F)c(Cl)c2)C(=O)N2CCC[C@H]2C(=O)NC2(CCCC2)C(=O)N(C)[C@@H](C2CCCCC2)C(=O)N(C)[C@H](C(=O)N2CCCCC2)CC(=O)N1C [Compound 92] ([NMeL][hNle(7,7-F2)][Sar][Sar][NMeCha][Sar][hPhe(3-Cl-4-CF3)]P[Ac5c][NMeChg][NMeD]-Piperidide; lactam N-11) | > 500
C#CC[C@@H]1NC(=O)[C@H](CC(C)C)N(C)C(=O)C[C@@H](C(=O)N2CCCCC2)N(C)C(=O)[C@H](C2CCCCC2)N(C)C(=O)C2(CCCC2)NC(=O)[C@@H]2CCCN2C(=O)[C@H](CCc2ccc(C(F)(F)F)c(Cl)c2)NC(=O)CN(C)C(=O)[C@H](CC2CCCCC2)N(C)C(=O)CN(C)C(=O)CN(C)C1=O [Compound 716] ([NMeL][Pra][Sar][Sar][NMeCha][Sar][hPhe(3-Cl-4-CF3)]P[Ac5c][NMeChg][NMeD]-Piperidide; lactam N-11) | > 500
CC[C@H](C)[C@@H]1NC(=O)[C@H](C)N(C)C(=O)C[C@@H](C(=O)N2CCCCC2)N(C)C(=O)[C@H](C(C)C)N(C)C(=O)C2(CCCC2)NC(=O)[C@@H]2CCCN2C(=O)[C@H](CCc2ccc(C(F)(F)F)c(F)c2)NC(=O)CN(C)C(=O)[C@H](CC2CCCCC2)N(C)C(=O)CN(C)C(=O)CN(C)C1=O [Compound 266] ([NMeA]I[Sar][Sar][NMeCha][Sar][hPhe(3-F,4-CF3)]P[Ac5c][NMeV][NMeD]-Piperidide; lactam N-11) | > 500
CC[C@H](C)[C@@H]1NC(=O)[C@H](C)N(C)C(=O)C[C@@H](C(=O)N2CCCCC2)N(C)C(=O)[C@H](C(C)C)N(C)C(=O)C2(CCCC2)NC(=O)[C@@H]2CCCN2C(=O)[C@H](CCc2ccc(C(F)(F)F)c(Cl)c2)NC(=O)[C@H]2CCCN2C(=O)[C@H](CC2CCCCC2)N(C)C(=O)CN(C)C(=O)CN(C)C1=O [Compound 135] ([NMeA]I[Sar][Sar][NMeCha][dP][hPhe(3-Cl-4-CF3)]P[Ac5c][NMeV][NMeD]-Piperidide; lactam N-11) | > 500
CC[C@H](C)[C@@H]1NC(=O)[C@H](CC(C)C)N(C)C(=O)C[C@@H](C(=O)N2CCCCC2)N(C)C(=O)[C@H](C2CCCC2)N(C)C(=O)C2(CCCC2)NC(=O)[C@@H]2CCCN2C(=O)[C@H](CCc2ccc(C(F)(F)F)c(OC)c2)NC(=O)CN(C)C(=O)[C@H](CC2CCCCC2)N(C)C(=O)[C@@H]2CCN2C(=O)[C@H](C)N(C)C1=O [Compound 2080] ([NMeL]I[NMeA][Aze][NMeCha][Sar][hPhe(3-OMe-4-CF3)]P[Ac5c][NMeGly(cPent)][NMeD]-Piperidide; lactam N-11 (inferred); C-terminus assumed) | ≤ 20
CC[C@H](C)[C@@H]1NC(=O)[C@H](CC(C)C)N(C)C(=O)C[C@@H](C(=O)N2CCN(C3COC3)CC2)NC(=O)[C@H]([C@@H](C)CC)N(C)C(=O)C2(CCCC2)NC(=O)[C@@H]2CCCN2C(=O)[C@H](CCc2ccc(C(F)(F)F)c(Cl)c2)NC(=O)CN(C)C(=O)[C@H](CC2CCCCC2)N(C)C(=O)CN(C)C(=O)CN(C)C1=O [Compound 1191] ([NMeL]I[Sar][Sar][NMeCha][Sar][hPhe(3-Cl-4-CF3)]P[Ac5c][NMeI]D-{Piperazinyl(4-(3-oxetanyl))}; lactam N-11) | > 500
